From ChEMBL document CHEMBL3112506, “Synthesis and structure-activity relationship studies of 4-((2-hydroxy-3-methoxybenzyl)amino)benzenesulfonamide derivatives as potent and selective inhibitors of 12-lipoxygenase” (J Med Chem, 2014)
Values belong to the molecule of their own block, whether it stands above or below them. Active and inactive are the calls of the source. The rule behind the calls is not given here.

How the values were obtained:
[1] = target: T1, Polyunsaturated fatty acid lipoxygenase ALOX12 (Homo sapiens, UniProt P18054)
T1 sequence (P18054 whole entry): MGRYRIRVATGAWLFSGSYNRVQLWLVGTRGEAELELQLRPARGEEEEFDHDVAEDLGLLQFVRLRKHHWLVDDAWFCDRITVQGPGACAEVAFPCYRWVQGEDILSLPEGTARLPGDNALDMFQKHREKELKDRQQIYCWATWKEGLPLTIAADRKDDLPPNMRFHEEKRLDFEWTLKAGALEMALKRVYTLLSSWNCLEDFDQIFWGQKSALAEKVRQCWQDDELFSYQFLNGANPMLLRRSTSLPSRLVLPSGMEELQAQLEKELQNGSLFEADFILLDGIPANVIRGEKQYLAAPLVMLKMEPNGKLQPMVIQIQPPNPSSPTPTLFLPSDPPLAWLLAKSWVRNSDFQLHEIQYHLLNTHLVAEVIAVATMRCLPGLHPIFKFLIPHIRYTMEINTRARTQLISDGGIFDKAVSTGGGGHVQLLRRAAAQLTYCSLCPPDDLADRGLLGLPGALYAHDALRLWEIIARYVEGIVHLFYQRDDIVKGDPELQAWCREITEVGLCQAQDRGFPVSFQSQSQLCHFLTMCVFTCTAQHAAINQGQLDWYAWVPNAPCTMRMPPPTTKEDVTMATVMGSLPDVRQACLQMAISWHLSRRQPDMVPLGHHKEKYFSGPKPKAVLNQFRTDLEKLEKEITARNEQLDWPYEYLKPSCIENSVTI

Liver microsome = assay: Metabolic stability in rat liver microsomes measured over 1 hr in absence of NADPH; type: ADME
Mus musculus [2] = assay: AUC (infinity) in CD-1 mouse at 30 mg/kg, po; type: ADME, organism-based, Plasma; parameters: time infinity, dose 30 mg/kg, route oral; settings: in vivo
[3] = Stability of the compound in HEPES buffer at pH 7.3; type: physicochemical
[4] = target: Cyclooxygenase (Homo sapiens) (UniProt P35354+P23219); assay: Inhibition of COX1/COX2 (unknown origin) using arachidonic acid as substrate assessed as consumption of oxygen preincubated for 5 mins followed by substrate addition at 15 uM; type: protein assay
[5] = Aqueous solubility of the compound in PBS buffer at pH 7.4 by LC-UV spectroscopic analysis; type: physicochemical
[6] = Stability of the compound in aqueous buffer at pH 2 to 9; type: physicochemical
Mus musculus [7] = assay: AUC (infinity) in CD-1 mouse at 3 mg/kg, iv; type: ADME, organism-based, Plasma; parameters: dose 3 mg/kg, route intravenous, time infinity; settings: in vivo
Mus musculus [8] = assay: Cmax in CD-1 mouse at 30 mg/kg, po; type: ADME, organism-based; parameters: dose 30 mg/kg, route oral; settings: in vivo
[9] = Metabolic stability in mouse liver microsomes measured over 1 hr in absence of NADPH; type: ADME, Microsome
[10] = Stability of the compound in presence of glutathione; type: ADME
Mus musculus [11] = assay: Volume of distribution in CD-1 mouse at 3 mg/kg, iv; type: ADME, organism-based; parameters: dose 3 mg/kg, route intravenous; settings: in vivo
[12] = Aqueous solubility of the compound in PBS buffer at pH 7.4 by chemiluminescent nitrogen detection method; type: physicochemical
Mus musculus [13] = assay: Cmax in CD-1 mouse at 3 mg/kg, iv; type: ADME, organism-based; parameters: dose 3 mg/kg, route intravenous; settings: in vivo
Rattus norvegicus = species: Rattus norvegicus; assay: Metabolic stability in rat assessed as glucuronidation; type: ADME, organism-based; settings: in vitro
[14] = target: T2, Polyunsaturated fatty acid lipoxygenase ALOX15 (Homo sapiens, UniProt P16050)
T2 sequence (P16050 whole entry): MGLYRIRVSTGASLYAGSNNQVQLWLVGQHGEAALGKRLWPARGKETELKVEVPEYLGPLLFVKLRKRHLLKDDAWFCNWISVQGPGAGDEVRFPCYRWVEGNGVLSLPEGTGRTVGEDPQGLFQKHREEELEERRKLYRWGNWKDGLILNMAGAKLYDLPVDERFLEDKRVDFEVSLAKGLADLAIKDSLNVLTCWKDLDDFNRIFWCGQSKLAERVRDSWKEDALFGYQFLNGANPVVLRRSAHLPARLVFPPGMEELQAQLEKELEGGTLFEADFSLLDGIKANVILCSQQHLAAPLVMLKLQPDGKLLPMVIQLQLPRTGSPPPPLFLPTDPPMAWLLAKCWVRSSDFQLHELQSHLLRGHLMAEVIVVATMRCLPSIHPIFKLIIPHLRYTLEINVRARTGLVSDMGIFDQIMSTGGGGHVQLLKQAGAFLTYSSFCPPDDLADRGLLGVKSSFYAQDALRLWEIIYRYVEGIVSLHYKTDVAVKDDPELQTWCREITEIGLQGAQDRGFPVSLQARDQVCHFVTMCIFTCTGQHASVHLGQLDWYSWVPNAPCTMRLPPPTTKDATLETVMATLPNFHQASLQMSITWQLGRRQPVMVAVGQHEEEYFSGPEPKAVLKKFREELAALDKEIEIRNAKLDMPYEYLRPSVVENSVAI

[15] = Metabolic stability in mouse plasma assessed as compound remaining measured at 2 hrs; type: ADME, cell-free; settings: read-out: Stability
[16] = Stability of the compound in PBS buffer at pH 7.4 measured at 48 hrs; type: physicochemical; settings: read-out: Stability
[17] = target: T3, Polyunsaturated fatty acid lipoxygenase ALOX12 (Mus musculus) (UniProt P39655); assay: Inhibition of 12-LOX in mouse BTC3 cells assessed as inhibition of arachidonic acid/calcium ionophore-induced 12-HETE production after 4 hrs by ELISA; type: cell-based
T3 sequence (whole entry): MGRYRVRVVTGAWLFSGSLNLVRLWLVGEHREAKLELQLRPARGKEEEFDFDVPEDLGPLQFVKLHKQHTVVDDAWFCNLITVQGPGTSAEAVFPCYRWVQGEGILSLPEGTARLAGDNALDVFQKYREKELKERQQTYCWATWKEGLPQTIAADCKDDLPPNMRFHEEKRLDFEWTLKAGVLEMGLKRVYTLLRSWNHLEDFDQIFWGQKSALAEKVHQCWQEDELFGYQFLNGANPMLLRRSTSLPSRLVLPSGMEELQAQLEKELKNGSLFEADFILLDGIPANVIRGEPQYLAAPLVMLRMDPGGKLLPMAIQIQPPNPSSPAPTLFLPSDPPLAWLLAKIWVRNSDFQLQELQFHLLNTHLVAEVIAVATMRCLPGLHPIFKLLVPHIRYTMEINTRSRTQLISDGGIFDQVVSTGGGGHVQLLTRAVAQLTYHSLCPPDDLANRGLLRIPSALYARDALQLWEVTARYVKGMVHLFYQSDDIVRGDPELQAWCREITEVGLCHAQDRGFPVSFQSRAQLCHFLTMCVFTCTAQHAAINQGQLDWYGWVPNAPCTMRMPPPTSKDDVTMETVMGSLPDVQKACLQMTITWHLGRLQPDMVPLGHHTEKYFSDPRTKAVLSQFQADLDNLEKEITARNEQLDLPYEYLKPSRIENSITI

SMILES: O=S(=O)(Nc1nccs1)c1ccc(NCc2ccccc2)cc1
IC50 [1]: > 40 µM

SMILES: O=S(=O)(Nc1nccs1)c1ccc(NCc2cccc(O)c2)cc1
IC50 [1]: > 40 µM

SMILES: COc1cccc(CNc2ccc(S(=O)(=O)Nc3nc4ccccc4s3)cc2)c1O [VLX-1005]
Stability (Liver microsome): Stable
AUC (Mus musculus [2]): 67 µM·h
Stability [3]: Stable
inhibition [4]: inactive
solubility [5]: < 5 µg/mL
Stability [6]: Stable
AUC (Mus musculus [7]): 34 µM·h
Cmax (Mus musculus [8]): 38 µM
Stability [9]: Stable
Stability [10]: Stable
Vd (Mus musculus [11]): 0.55 L/kg
solubility [12]: soluble
Cmax (Mus musculus [13]): 112 µM

inhibition [4]: inactive
SMILES: COc1cccc(CNc2ccc(S(=O)(=O)Nc3nc4ccccc4[nH]3)cc2)c1O

SMILES: O=S(=O)(Nc1nc2ccccc2s1)c1ccc(NCc2cccc(Cl)c2O)cc1
Stability (Rattus norvegicus): Unstable
IC50 [14]: 1.3 µM

SMILES: COc1cccc(CNc2ccc(S(=O)(=O)Nc3nc4ccccc4o3)cc2)c1O
remaining at 2 h [15]: 100%
Stability (Liver microsome): Stable
inhibition [4]: inactive
Stability [9]: Stable
remaining at 48 h [16]: 100%
inhibition [17]: Active
solubility [12]: soluble

SMILES: O=S(=O)(Nc1nccs1)c1ccc(NCc2ccccc2O)cc1
IC50 [1]: > 40 µM

SMILES: Nc1ccccc1CNc1ccc(S(=O)(=O)Nc2nccs2)cc1
IC50 [1]: > 40 µM
